# From ChEMBL document CHEMBL1201862, “PubChem BioAssay data set” (2004)
#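 Values below derive from 48-hour exposures of cells grown in 96-well plates, with endpoints linearly interpolated between the two concentrations bracketing the appropriate inhibition level. GI50 = concentration required for 50% inhibition of growth.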 Activity calls are given as the source filed them. Cut-off read from the data, not from the text of the source: active = GI50 up to about 1.1 µM and inactive = higher.
# Key:
# Experiment in all cases: NCI anticancer screen, dose series, 48 h
# HT-29 = tested on: HT-29
# UACC-62 = tested on: UACC-62
# KM12 = tested on: KM12
# OVCAR-3 = tested on: OVCAR-3
# CCRF-CEM = tested on: CCRF-CEM
# A549 = tested on: A549
# RPMI-8226 = tested on: RPMI-8226
# PC-3 = tested on: PC-3
# MDA-MB-231 = tested on: MDA-MB-231
# SK-OV-3 = tested on: SK-OV-3
# HOP-62 = tested on: HOP-62
# SNB-19 = tested on: SNB-19
# SF-295 = tested on: SF-295
# EKVX = tested on: EKVX
# SF-268 = tested on: SF-268
# COLO 205 = tested on: COLO 205
# 786-0 = tested on: 786-0
# MDA-MB-435 = tested on: MDA-MB-435
# HCT-116 = tested on: HCT-116
# OVCAR-8 = tested on: OVCAR-8
# SN12C = tested on: SN12C
# HCC 2998 = tested on: HCC 2998
# DU-145 = tested on: DU-145
# Hs-578T = tested on: Hs-578T
# T47D = tested on: T47D
# TK-10 = tested on: TK-10
# HCT-15 = tested on: HCT-15
# K562 = tested on: K562
# NCI/ADR-RES = tested on: NCI/ADR-RES
# U-251 = tested on: U-251
# OVCAR-5 = tested on: OVCAR-5
# SW-620 = tested on: SW-620
# UACC-257 = tested on: UACC-257
# OVCAR-4 = tested on: OVCAR-4
# RXF 393 = tested on: RXF 393
# SR = tested on: SR
# M14 = tested on: M14
# LOX IMVI = tested on: LOX IMVI
# UO-31 = tested on: UO-31
# MDA-N = tested on: MDA-N
# NCI-H522 = tested on: NCI-H522
# IGROV-1 = tested on: IGROV-1
# SK-MEL-28 = tested on: SK-MEL-28
# Malme-3M = tested on: Malme-3M
# MCF7 = tested on: MCF7
# HL-60 = tested on: HL-60
# SK-MEL-5 = tested on: SK-MEL-5
# HOP-92 = tested on: HOP-92
# NCI-H226 = tested on: NCI-H226
# MOLT-4 = tested on: MOLT-4
# ACHN = tested on: ACHN
# NCI-H23 = tested on: NCI-H23
# NCI-H460 = tested on: NCI-H460
# BT-549 = tested on: BT-549
# SF-539 = tested on: SF-539
# SNB-75 = tested on: SNB-75
# SK-MEL-2 = tested on: SK-MEL-2
# CAKI-1 = tested on: CAKI-1
# A498 = tested on: A498
compound,measurement,setting,value
CC1(C)C2CCC1C(=O)[C@@]1(C=CC(=O)CC1)C2 (stereo not given in full),GI50,HT-29,> 100 µM (inactive)
same,GI50,UACC-62,> 100 µM (inactive)
same,GI50,KM12,> 100 µM (inactive)
same,GI50,OVCAR-3,> 100 µM (inactive)
same,GI50,CCRF-CEM,> 100 µM (inactive)
same,GI50,A549,> 100 µM (inactive)
same,GI50,RPMI-8226,> 100 µM (inactive)
same,GI50,PC-3,> 100 µM (inactive)
same,GI50,MDA-MB-231,> 100 µM (inactive)
same,GI50,SK-OV-3,> 100 µM (inactive)
same,GI50,HOP-62,> 100 µM (inactive)
same,GI50,SNB-19,> 100 µM (inactive)
same,GI50,SF-295,> 100 µM (inactive)
same,GI50,EKVX,> 100 µM (inactive)
same,GI50,SF-268,> 100 µM (inactive)
same,GI50,COLO 205,> 100 µM (inactive)
same,GI50,786-0,> 100 µM (inactive)
same,GI50,MDA-MB-435,> 100 µM (inactive)
same,GI50,HCT-116,> 100 µM (inactive)
same,GI50,OVCAR-8,> 100 µM (inactive)
same,GI50,SN12C,> 100 µM (inactive)
same,GI50,HCC 2998,> 100 µM (inactive)
same,GI50,DU-145,> 100 µM (inactive)
same,GI50,Hs-578T,> 100 µM (inactive)
same,GI50,T47D,> 100 µM (inactive)
same,GI50,TK-10,> 100 µM (inactive)
same,GI50,HCT-15,> 100 µM
same,GI50,K562,> 100 µM (inactive)
same,GI50,NCI/ADR-RES,> 100 µM (inactive)
same,GI50,U-251,> 100 µM (inactive)
same,GI50,OVCAR-5,> 100 µM (inactive)
same,GI50,SW-620,> 100 µM (inactive)
same,GI50,UACC-257,> 100 µM (inactive)
same,GI50,OVCAR-4,> 100 µM (inactive)
same,GI50,RXF 393,> 100 µM (inactive)
same,GI50,SR,> 100 µM (inactive)
same,GI50,M14,> 100 µM (inactive)
same,GI50,LOX IMVI,> 100 µM (inactive)
same,GI50,UO-31,> 100 µM (inactive)
same,GI50,MDA-N,> 100 µM (inactive)
same,GI50,NCI-H522,> 100 µM (inactive)
same,GI50,IGROV-1,> 100 µM (inactive)
same,GI50,SK-MEL-28,43.1 µM (inactive)
same,GI50,Malme-3M,> 100 µM (inactive)
same,GI50,MCF7,> 100 µM (inactive)
same,GI50,HL-60,> 100 µM (inactive)
same,GI50,SK-MEL-5,> 100 µM (inactive)
same,GI50,HOP-92,> 100 µM (inactive)
same,GI50,NCI-H226,> 100 µM (inactive)
same,GI50,MOLT-4,> 100 µM (inactive)
same,GI50,ACHN,> 100 µM (inactive)
same,GI50,NCI-H23,> 100 µM (inactive)
same,GI50,NCI-H460,> 100 µM (inactive)
same,GI50,BT-549,> 100 µM (inactive)
same,GI50,SF-539,> 100 µM (inactive)
same,GI50,SNB-75,61.1 µM (inactive)
Clc1cc2nnn(C3CCCCO3)c2cc1Cl (stereo not given),GI50,HT-29,63.1 µM (inactive)
same,GI50,UACC-62,37.2 µM (inactive)
same,GI50,KM12,86.3 µM (inactive)
same,GI50,OVCAR-3,69.3 µM (inactive)
same,GI50,CCRF-CEM,> 100 µM (inactive)
same,GI50,A549,80.2 µM (inactive)
same,GI50,RPMI-8226,> 100 µM (inactive)
same,GI50,PC-3,58.1 µM (inactive)
same,GI50,MDA-MB-231,24.5 µM (inactive)
same,GI50,SK-OV-3,> 100 µM (inactive)
same,GI50,HOP-62,> 100 µM (inactive)
same,GI50,SNB-19,> 100 µM (inactive)
same,GI50,SK-MEL-2,> 100 µM (inactive)
same,GI50,SF-295,> 100 µM (inactive)
same,GI50,EKVX,20.7 µM (inactive)
same,GI50,SF-268,42.3 µM (inactive)
same,GI50,COLO 205,> 100 µM (inactive)
same,GI50,786-0,> 100 µM (inactive)
same,GI50,MDA-MB-435,> 100 µM (inactive)
same,GI50,HCT-116,79.8 µM (inactive)
same,GI50,OVCAR-8,> 100 µM (inactive)
same,GI50,SN12C,> 100 µM (inactive)
same,GI50,HCC 2998,> 100 µM (inactive)
same,GI50,DU-145,99.1 µM (inactive)
same,GI50,Hs-578T,35.4 µM (inactive)
same,GI50,T47D,30.4 µM (inactive)
same,GI50,TK-10,> 100 µM (inactive)
same,GI50,HCT-15,96.6 µM
same,GI50,K562,> 100 µM (inactive)
same,GI50,NCI/ADR-RES,48.3 µM (inactive)
same,GI50,U-251,80.7 µM (inactive)
same,GI50,OVCAR-5,> 100 µM (inactive)
same,GI50,UACC-257,60.7 µM (inactive)
same,GI50,OVCAR-4,> 100 µM (inactive)
same,GI50,CAKI-1,30.4 µM (inactive)
same,GI50,RXF 393,> 100 µM (inactive)
same,GI50,SR,51.6 µM (inactive)
same,GI50,M14,> 100 µM (inactive)
same,GI50,UO-31,30.7 µM (inactive)
same,GI50,MDA-N,> 100 µM (inactive)
same,GI50,NCI-H522,42.5 µM (inactive)
same,GI50,IGROV-1,> 100 µM (inactive)
same,GI50,Malme-3M,> 100 µM (inactive)
same,GI50,MCF7,> 100 µM (inactive)
same,GI50,SK-MEL-5,38.7 µM (inactive)
same,GI50,NCI-H226,23.5 µM (inactive)
same,GI50,MOLT-4,75.7 µM (inactive)
same,GI50,ACHN,> 100 µM (inactive)
same,GI50,NCI-H23,> 100 µM (inactive)
same,GI50,NCI-H460,88.9 µM (inactive)
same,GI50,BT-549,41.5 µM (inactive)
same,GI50,A498,36.1 µM (inactive)
same,GI50,SF-539,> 100 µM (inactive)
same,GI50,SNB-75,34.4 µM (inactive)
